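Step 1: Grow cells in 96-well plates. Step 2: Expose to compound for 48 hours at 5 concentrations. Step 3: Interpolate endpoints linearly; if unreached, use highest concentration. Here, GI50 denotes the concentration required for 50% inhibition of growth.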 Active and inactive are the calls of the source. Rule as the data show it: active = GI50 up to about 1.1 µM and inactive = higher.
Key:
Experiment in all cases: inhibition of tumour cell growth, NCI panel, 48 h
786-0 = tested on: 786-0
HL-60 = tested on: HL-60
HOP-62 = tested on: HOP-62
KM12 = tested on: KM12
LOX IMVI = tested on: LOX IMVI
MDA-MB-435 = tested on: MDA-MB-435
MOLT-4 = tested on: MOLT-4
Malme-3M = tested on: Malme-3M
NCI-H226 = tested on: NCI-H226
NCI-H23 = tested on: NCI-H23
NCI-H460 = tested on: NCI-H460
OVCAR-4 = tested on: OVCAR-4
SF-295 = tested on: SF-295
SK-MEL-28 = tested on: SK-MEL-28
SK-MEL-2 = tested on: SK-MEL-2
SN12C = tested on: SN12C
SW-620 = tested on: SW-620
U-251 = tested on: U-251
UACC-62 = tested on: UACC-62
UO-31 = tested on: UO-31

O=C1Oc2ccc([N+](=O)[O-])cc2N/C1=C\C(=O)c1ccccc1
GI50 (786-0): 52.6 µM (inactive)
GI50 (HL-60): 62.4 µM (inactive)
GI50 (HOP-62): > 100 µM (inactive)
GI50 (KM12): 55.1 µM (inactive)
GI50 (LOX IMVI): > 100 µM (inactive)
GI50 (MDA-MB-435): > 100 µM (inactive)
GI50 (MOLT-4): > 100 µM (inactive)
GI50 (Malme-3M): > 100 µM (inactive)
GI50 (NCI-H226): > 100 µM (inactive)
GI50 (NCI-H23): > 100 µM (inactive)
GI50 (NCI-H460): > 100 µM (inactive)
GI50 (OVCAR-4): > 100 µM (inactive)
GI50 (SF-295): > 100 µM (inactive)
GI50 (SK-MEL-28): > 100 µM (inactive)
GI50 (SK-MEL-2): 27.9 µM (inactive)
GI50 (SN12C): 62.1 µM (inactive)
GI50 (SW-620): > 100 µM (inactive)
GI50 (U-251): 78.5 µM (inactive)
GI50 (UACC-62): > 100 µM (inactive)
GI50 (UO-31): > 100 µM (inactive)

C=C1OC(=O)[C@]2([C@@H](/C=C/C)C=CC(=O)[C@H]2O)[C@@H]1O
GI50 (786-0): > 100 µM (inactive)
GI50 (HL-60): > 100 µM (inactive)
GI50 (HOP-62): > 100 µM (inactive)
GI50 (KM12): > 100 µM (inactive)
GI50 (LOX IMVI): > 100 µM (inactive)
GI50 (MDA-MB-435): > 100 µM (inactive)
GI50 (MOLT-4): > 100 µM (inactive)
GI50 (Malme-3M): > 100 µM (inactive)
GI50 (NCI-H226): > 100 µM (inactive)
GI50 (NCI-H23): > 100 µM (inactive)
GI50 (NCI-H460): > 100 µM (inactive)
GI50 (OVCAR-4): > 100 µM (inactive)
GI50 (SF-295): > 100 µM (inactive)
GI50 (SK-MEL-28): > 100 µM (inactive)
GI50 (SK-MEL-2): > 100 µM (inactive)
GI50 (SN12C): > 100 µM (inactive)
GI50 (SW-620): > 100 µM (inactive)
GI50 (U-251): > 100 µM (inactive)
GI50 (UACC-62): > 100 µM (inactive)
GI50 (UO-31): > 100 µM (inactive)

O=c1ccn(CC2(CO)CC(Cc3ccccc3)C2)c(=O)[nH]1 (stereo not given)
GI50 (786-0): > 100 µM (inactive)
GI50 (HL-60): > 100 µM (inactive)
GI50 (HOP-62): > 100 µM (inactive)
GI50 (KM12): > 100 µM (inactive)
GI50 (LOX IMVI): > 100 µM (inactive)
GI50 (MDA-MB-435): > 100 µM (inactive)
GI50 (MOLT-4): > 100 µM (inactive)
GI50 (Malme-3M): > 100 µM (inactive)
GI50 (NCI-H226): > 100 µM (inactive)
GI50 (NCI-H23): > 100 µM (inactive)
GI50 (NCI-H460): > 100 µM (inactive)
GI50 (OVCAR-4): > 100 µM (inactive)
GI50 (SF-295): > 100 µM (inactive)
GI50 (SK-MEL-28): > 100 µM (inactive)
GI50 (SK-MEL-2): > 100 µM (inactive)
GI50 (SN12C): > 100 µM (inactive)
GI50 (SW-620): > 100 µM (inactive)
GI50 (U-251): > 100 µM (inactive)
GI50 (UACC-62): > 100 µM (inactive)
GI50 (UO-31): > 100 µM (inactive)

CCCCCc1cccc(=O)o1
GI50 (786-0): > 100 µM (inactive)
GI50 (HL-60): > 100 µM (inactive)
GI50 (HOP-62): > 100 µM (inactive)
GI50 (KM12): > 100 µM (inactive)
GI50 (LOX IMVI): > 100 µM (inactive)
GI50 (MDA-MB-435): > 100 µM (inactive)
GI50 (MOLT-4): > 100 µM (inactive)
GI50 (Malme-3M): > 100 µM (inactive)
GI50 (NCI-H226): > 100 µM (inactive)
GI50 (NCI-H23): > 100 µM (inactive)
GI50 (NCI-H460): > 100 µM (inactive)
GI50 (OVCAR-4): > 100 µM (inactive)
GI50 (SF-295): > 100 µM (inactive)
GI50 (SK-MEL-28): > 100 µM (inactive)
GI50 (SK-MEL-2): > 100 µM (inactive)
GI50 (SN12C): > 100 µM (inactive)
GI50 (SW-620): > 100 µM (inactive)
GI50 (U-251): > 100 µM (inactive)
GI50 (UACC-62): > 100 µM (inactive)
GI50 (UO-31): > 100 µM (inactive)

[N-]=[N+]=Nc1c(C=O)c(=O)n2c3c(cccc13)CCC2
GI50 (786-0): 3.93 µM (inactive)
GI50 (HL-60): 0.608 µM (active)
GI50 (HOP-62): 18 µM (inactive)
GI50 (KM12): 17.5 µM (inactive)
GI50 (LOX IMVI): 10.3 µM (inactive)
GI50 (MDA-MB-435): 6.89 µM (inactive)
GI50 (MOLT-4): 1.24 µM (inactive)
GI50 (Malme-3M): 1.84 µM (inactive)
GI50 (NCI-H226): 11.9 µM (inactive)
GI50 (NCI-H23): 4.26 µM (inactive)
GI50 (NCI-H460): 21.2 µM (inactive)
GI50 (OVCAR-4): 2.24 µM (inactive)
GI50 (SF-295): 25.9 µM (inactive)
GI50 (SK-MEL-28): 11.5 µM (inactive)
GI50 (SK-MEL-2): > 10 µM (inactive)
GI50 (SN12C): 15.4 µM (inactive)
GI50 (SW-620): 1.39 µM (inactive)
GI50 (U-251): 13.6 µM (inactive)
GI50 (UACC-62): 12.8 µM (inactive)
GI50 (UO-31): 2.49 µM (inactive)
